Values after ≈ are worked out from the molar mass of the structure shown.
What was measured:
[1] = Inhibition of pig platelet cytosolic phospholipase A2alpha using 1-stearoyl-2-arachidonoyl-sn-glycero-3-phosphocholine/1,2-dioleoyl-sn-glycerol as substrate after 60 mins by reversed phase HPLC-UV detection analysis; design: species or system Sus scrofa
[2] = target: T1, Fatty-acid amide hydrolase 1 (Rattus norvegicus, UniProt P97612); assay: Inhibition of FAAH in rat brain microsomes using N-(2-hydroxyethyl)-4-pyren-1-ylbutanamide as substrate after 60 mins by fluorescence-based reversed phase HPLC analysis
T1 sequence (P97612 whole entry): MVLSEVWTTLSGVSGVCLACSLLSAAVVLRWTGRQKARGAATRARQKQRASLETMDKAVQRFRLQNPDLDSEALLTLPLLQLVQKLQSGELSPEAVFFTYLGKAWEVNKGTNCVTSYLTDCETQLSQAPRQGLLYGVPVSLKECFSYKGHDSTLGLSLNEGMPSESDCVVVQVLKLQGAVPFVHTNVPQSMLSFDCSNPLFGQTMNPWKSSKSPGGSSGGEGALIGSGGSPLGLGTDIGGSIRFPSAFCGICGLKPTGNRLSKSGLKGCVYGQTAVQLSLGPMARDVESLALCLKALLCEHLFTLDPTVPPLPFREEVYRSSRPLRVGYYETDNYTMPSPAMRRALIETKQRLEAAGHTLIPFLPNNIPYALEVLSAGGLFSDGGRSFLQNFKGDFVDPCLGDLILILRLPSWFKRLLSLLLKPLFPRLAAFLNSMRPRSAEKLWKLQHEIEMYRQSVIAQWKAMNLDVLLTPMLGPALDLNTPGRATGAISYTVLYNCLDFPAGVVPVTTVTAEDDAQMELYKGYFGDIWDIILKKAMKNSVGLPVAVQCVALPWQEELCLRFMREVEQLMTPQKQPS

[3] = Metabolic stability in rat liver S9 fraction assessed as amount of parent compound remaining after 30 mins under aerobic conditions in presence of NADPH by reversed HPLC -UV detection analysis; assay type: ADME, subcellular; conditions: for remaining at 0.5 h: liver S9 fraction, read-out: Stability; for Stability: s9, 0.5 h
[4] = Ratio of IC50 for pig platelet cytosolic phospholipase A2alpha to IC50 for FAAH in rat brain microsomes
[5] = Thermodynamic aqueous solubility of the compound at pH 7.4 at 20 degC sonicated for 10 mins after 24 hrs UV-HPLC analysis; assay type: physicochemical; conditions: read-out: Therm_solubility
[6] = Drug metabolism in rat liver S9 fraction assessed as hydroxylation product metabolite formation after 30 mins under aerobic conditions in presence of NADPH by reversed HPLC/MS analysis; assay type: ADME, subcellular; conditions: s9, 0.5 h
[7] = Drug metabolism in rat liver S9 fraction assessed as alcohol derivative metabolite formation after 30 mins under aerobic conditions in presence of NADPH by reversed HPLC/MS analysis; assay type: ADME, subcellular; conditions: s9, 0.5 h

SMILES | IC50 [2] [nM] | remaining at 0.5 h [3] [%] | further results
CCCCCCCCCCOc1ccc(OCC(=O)COc2ccc(C(=O)O)cc2)cc1 | – | – | IC50 [1]: 6.5 nM
CCCCCCCCc1ccc(OCC(=O)Cn2cncn2)cc1 | 53 | – | –
CC(Oc1ccc(-c2ccccc2)cc1)C(=O)Cn1ncnn1 (stereo unspecified) | 9 | 0 | IC50 [1]: 3300 nM; Ratio IC50 [4]: 100 to 500; solubility thermodynamic at 24 h [5]: 2 µg/mL (≈ 6.49 µM)
CCCCCCCCc1ccc(OCC(=O)Cn2ncc3ccccc32)cc1 | 2300 | – | –
CCCCCCCCc1ccc(OCC(=O)Cn2cnc3ccccc32)cc1 | 480 | – | –
O=C(COc1ccc(-c2ccccc2)cc1)Cn1cnnn1 | 43 | 0 | IC50 [1]: 4900 nM; Ratio IC50 [4]: 100 to 500; solubility thermodynamic at 24 h [5]: 11 µg/mL (≈ 37.4 µM)
O=C(COc1ccc(-c2ccc(Cl)cc2)cc1)Cn1nnc2ccccc21 | 21 | – | Stability [3]: Unstable
CC(Oc1ccc(-c2ccc(F)cc2)cc1)C(=O)Cn1nnc2ccccc21 (stereo unspecified) | 12 | 29 | –
CCCCCCCCc1ccc(OCC(=O)Cn2nnc3ccccc32)cc1 | 15 | – | –
CCCCCCCCc1ccc(OCC(=O)Cn2cccn2)cc1 | 840 | – | –
O=C1NC(=O)C(c2ccccc2)(c2ccccc2)N1 [PHENYTOIN] | – | – | solubility thermodynamic at 24 h [5]: 18 µg/mL (≈ 71.4 µM)
CC(Oc1ccc(-c2ccccc2)cc1)C(=O)Cn1nnc2ccccc21 (stereo unspecified) | 13 | 23 | IC50 [1]: 6800 nM; Ratio IC50 [4]: 100 to 500; solubility thermodynamic at 24 h [5]: < 1 µg/mL
CCCCCCCCc1ccc(OCC(=O)Cn2nnc3cccnc32)cc1 | 13 | – | –
CCCCCCCCc1ccc(OCC(=O)Cn2ncc3ncccc32)cc1 | 93 | – | –
CCCCCCCCc1ccc(OCC(=O)Cn2cnc3ncccc32)cc1 | 620 | – | –
CCC(Oc1ccc(-c2ccccc2)cc1)C(=O)Cn1nnc2ccccc21 (stereo unspecified) | 1800 | 51 | Drug metabolism [6]: Metabolite_Notdetected

SMILES | IC50 [2] [nM] | remaining at 0.5 h [3] [%] | further results
CC(Oc1ccc(-c2ccccc2)cc1)C(=O)Cn1cnnn1 (stereo unspecified) | 19 | 9 | IC50 [1]: 6900 nM; Ratio IC50 [4]: 100 to 500; solubility thermodynamic at 24 h [5]: 4 µg/mL (≈ 13 µM)
CCCCCCCCc1ccc(OCC(=O)Cn2cnc3cccnc32)cc1 | 410 | – | –
CCCCCCCCc1ccc(OCC(=O)Cn2ccc3ncccc32)cc1 | > 10000 | – | –
CCCCCCCCc1ccc(OCC(=O)Cn2nccn2)cc1 | 100 | – | –
O=C(COc1ccc(-c2ccc(F)cc2)cc1)Cn1nnc2ccccc21 | 12 | – | Stability [3]: Unstable
O=C(COc1ccc(-c2cccc(F)c2)cc1)Cn1nnc2ccccc21 | 14 | – | Stability [3]: Unstable
CCCCCCCCc1ccc(OCC(=O)Cn2ncc3cccnc32)cc1 | 1600 | – | –
CC(C(=O)COc1ccc(-c2ccccc2)cc1)n1cnnn1 (stereo unspecified) | > 10000 | 11 | –
O=C(COc1ccc(-c2ccccc2)cc1)Cn1ncnn1 | 11 | 0 | IC50 [1]: 1800 nM; Ratio IC50 [4]: 100 to 500; solubility thermodynamic at 24 h [5]: 10 µg/mL (≈ 34 µM)
O=C(COc1ccc(-c2cccc(Cl)c2)cc1)Cn1nnc2ccccc21 | 11 | – | Stability [3]: Unstable
CCCCCCCCc1ccc(OCC(=O)Cn2nnc3ncccc32)cc1 | 49 | – | –
CC(C(=O)COc1ccc(-c2ccccc2)cc1)n1nnc2ccccc21 (stereo unspecified) | 630 | 21 | –
O=C(COc1ccc(-c2ccccc2)cc1)Cn1nnc2ccccc21 | 12 | 0 | IC50 [1]: 2400 nM; Drug metabolism [7]: Metabolite_Detected; Ratio IC50 [4]: 100 to 500; solubility thermodynamic at 24 h [5]: 2 µg/mL (≈ 5.82 µM)
CC(C(=O)COc1ccc(-c2ccccc2)cc1)n1ncnn1 (stereo unspecified) | 6300 | 0 | –
CCCCCCCCc1ccc(OCC(=O)Cn2ccnc2)cc1 | 410 | – | –

Source: ChEMBL document CHEMBL3872277, “1-Heteroarylpropan-2-ones as inhibitors of fatty acid amide hydrolase: Studies on structure-activity relationships and metabolic stability” (Bioorg Med Chem, 2017)
